The source of these data is EPA's ToxRefDB 2.

Bounds are passed on as bounds.

One data set has as its system primate. Particulars: Subchronic oral toxicity in nonrodent, Gavage/Intubation, dose end: 91 day, group: systemic, systemic / in life observation / clinical signs / ataxia + systemic / in life observation / clinical signs / convulsions + systemic / in ….
Another data set relates to dog. Particulars: Sub-acute repeat dose toxicity, beagle, Oral, Gavage/Intubation, dose end: 17 day, group: systemic.
Data set [1] concerns mouse. Particulars: Carcinogenicity, cd1, Oral, Water, dose end: 24 month, group: systemic.
Data set [2] has as its system rat. Particulars: Sub-acute repeat dose toxicity; sprague dawley; Oral; Gavage/Intubation; dose end: 4 week; group: systemic; systemic / clinical chemistry / alanine aminotransferase (alt/sgpt) / alanine aminotransferase (alt/sgpt) + systemic / clinical chemistry / ….
Data set [3] has as its system rat. Particulars: Prenatal developmental toxicity study, sprague dawley, Oral, Gavage/Intubation, dose end: 17 GD, group: maternal.
The subject of data set [4] is rat. Particulars: Subchronic oral toxicity in rodents, fischer, Gavage/Intubation, dose end: 13 week, group: systemic.
For data set [5], the system named is mouse. Particulars: Sub-acute repeat dose toxicity; b6c3f1; Oral; Gavage/Intubation; dose end: 16 day; group: systemic; systemic / in life observation / mortality / mortality.
Data set [6] relates to mouse. Particulars: Subchronic oral toxicity in rodents, b6c3f1, Gavage/Intubation, dose end: 13 week, group: systemic.
Data set [7] relates to mouse. Particulars: Carcinogenicity, b6c3f1, Oral, Gavage/Intubation, dose end: 103 week, group: systemic.
In data set [8] the test system is rat. Particulars: Acute inhalation toxicity, fischer, Nose-Only, dose end: 28 day, group: systemic, systemic / pathology microscopic / nose / hyperplasia + systemic / pathology microscopic / nose / lesion(s) (nos) + systemic / pathology ….
Data set [9] relates to rat. Particulars: Sub-acute repeat dose toxicity; fischer; Oral; Gavage/Intubation; dose end: 28 day; group: systemic; systemic / in life observation / mortality / mortality + systemic / organ weight / kidney / absolute + systemic / organ weight / kidney / ….
For data set [10], the system named is rat. Particulars: Carcinogenicity; fischer; Oral; Gavage/Intubation; dose end: 103 week; group: systemic; systemic / pathology microscopic / liver / necrosis.
Data set [11] concerns rat. Particulars: Sub-acute repeat dose toxicity, fischer, Oral, Gavage/Intubation, dose end: 16 day, group: systemic.
Data set [12] concerns rat. Particulars: Combined chronic toxicity/carcinogenicity; sprague dawley; Oral; Water; dose end: 24 month; group: systemic; systemic / in life observation / mortality / mortality + systemic / pathology gross / kidney / calculus + systemic / pathology gross / ….
For data set [13], the system named is mouse. Particulars: Subchronic oral toxicity in rodents, b6c3f1, Water, dose end: 13 week, group: systemic.
The next data set concerns rabbit. Particulars: Prenatal developmental toxicity study, dutch, Oral, Gavage/Intubation, dose end: 18 GD.
The test system of data set [14] is rat. Particulars: Subchronic oral toxicity in rodents, sprague dawley, Water, dose end: 13 week, group: systemic.
Data set [15] concerns mouse. Particulars: Carcinogenicity, b6c3f1, Oral, Water, dose end: 104 week, group: systemic.
The mark [16] stands for this setting: systemic / clinical chemistry / alanine aminotransferase (alt/sgpt) / alanine aminotransferase (alt/sgpt) + systemic / clinical chemistry / ….
Where [17] appears, read: systemic / hematology / erythrocyte (rbc) count differential / erythrocyte (rbc) + systemic / hematology / hematocrit (hct) / hematocrit (….
The mark [18] stands for this setting: reproductive / reproductive performance / postimplantation loss / postimplantation loss + reproductive / reproductive performance / ….
[19] abbreviates: systemic / in life observation / mortality / mortality + systemic / organ weight / kidney / absolute + systemic / organ weight / kidney / ….
Where [20] appears, read: systemic / pathology microscopic / liver / vacuolization cytoplasmic.
Where [21] appears, read: systemic / organ weight / liver / relative to body weight.
Setting [22] is: systemic / pathology microscopic / kidney / carcinoma + systemic / pathology microscopic / stomach / hyperplasia.
[23] abbreviates: systemic / in life observation / clinical signs / labored respiration + systemic / in life observation / clinical signs / reduced activity….
[24] abbreviates: systemic / pathology gross / urinary bladder / calculus.
Setting [25] is: systemic / pathology gross / urinary bladder / calculus + systemic / pathology microscopic / urinary bladder / congestion.
Where [26] appears, read: group: developmental, developmental / developmental malformation / general / crown-rump length + systemic / in life observation / body weight / fetal weight.
The mark [27] stands for this setting: group: maternal, systemic / in life observation / body weight / body weight.
Setting [28] is: systemic / clinical chemistry / protein / protein.
Setting [29] is: systemic / pathology gross / urinary bladder / calculus + systemic / pathology microscopic / urinary bladder / hyperplasia.
The mark [30] stands for this setting: systemic / in life observation / clinical signs / distended abdomens + systemic / urinalysis / sodium / sodium.

With `Cl.NCC1(Cc2noc(=O)[nH]2)CCCCC1`, in the data set with primate, the LEL came to 250 mg/kg/day, the LOAEL was above 1500 mg/kg/day, the NEL came to 50 mg/kg/day and the no observed adverse effect level (NOAEL) was at least 1500 mg/kg/day.

Regarding `CC(C)(O)c1cnn2c(-c3ccc(F)c(-c4c(F)cccc4C#N)c3)cnc2n1`, in the data set with dog (setting [16]), the LOAEL is above 15 mg/kg/day, the NEL worked out at 0.5 mg/kg/day and the no-observed-adverse-effect level (NOAEL) was at least 15 mg/kg/day. In the data set on dog (systemic / clinical chemistry / albumin / albumin), this molecule displayed an LEL of 2.5 mg/kg/day.

Regarding `CN(C)N` [1,1-Dimethylhydrazine], in the data set with mouse [1] (setting [17]), the LEL stood at 1.41 mg/kg/day and the NEL came out at 0.269 mg/kg/day. For the same molecule, in the data set with mouse [1] (systemic / pathology microscopic / liver / hyperplasia + systemic / pathology microscopic / liver / pigmentation), the lowest observed adverse effect level (LOAEL) came to 1.91 mg/kg/day. Moreover, the NOAEL with mouse [1] (systemic / pathology microscopic / liver / hyperplasia + systemic / pathology microscopic / liver / pigmentation + systemic / in life …) was found to be 0.97 mg/kg/day.

With `O=C(O)c1ccccc1-n1cc(C(=O)O)c(=O)c2cc(Nc3c(F)cc(F)cc3Cl)c(Cl)cc21` [AVE9423], in the data set with rat [2], the LEL turned out to be 200 mg/kg/day, the LOAEL was 200 mg/kg/day, the NEL was found to be 20 mg/kg/day and the no-observed-adverse-effect level (NOAEL) came to 20 mg/kg/day. In addition, in the data set with rat [3] (setting [18]), the lowest-observed-adverse-effect level (LOAEL) is above 1000 mg/kg/day, the NEL worked out at 40 mg/kg/day and the NOAEL was at least 1000 mg/kg/day. Further, the LEL in the data set on rat [3] (reproductive / reproductive performance / postimplantation loss / postimplantation loss + systemic / in life observation / body weight / …) stood at 200 mg/kg/day.

For the molecule `O=Cc1ccco1` [Furfural], the lowest-observed-adverse-effect level (LOAEL) in the data set with rat [4] (setting [19]) was above 180 mg/kg/day; with mouse [5], above 400 mg/kg/day; in the data set with mouse [6] (systemic / pathology microscopic / liver / inflammation + systemic / pathology microscopic / liver / necrosis) it was 150 mg/kg/day; with mouse [7] (systemic / pathology microscopic / liver / inflammation + systemic / pathology microscopic / liver / pigmentation), 100 mg/kg/day; with rat [8] it was above 368 mg/kg/day; in the data set with rat [9], 192 mg/kg/day. The LOAEL is 30 mg/kg/day with rat [10] and above 240 mg/kg/day in the data set on rat [11] (setting [23]). For the same molecule, the NOAEL was at least 180 mg/kg/day in the data set with rat [4] (setting [19]); at least 400 mg/kg/day with mouse [5]; 75 mg/kg/day in the data set on mouse [6] (systemic / pathology microscopic / liver / inflammation + systemic / pathology microscopic / liver / necrosis + systemic / in life …); 50 mg/kg/day in the data set with mouse [7] (systemic / pathology microscopic / liver / inflammation + systemic / pathology microscopic / liver / pigmentation + systemic / pathology …); at least 368 mg/kg/day in the data set with rat [8]; 96 mg/kg/day in the data set with rat [9]. For the same molecule, the results for the no-observed-adverse-effect level (NOAEL) in the data set with rat [10] and with rat [11] (setting [23]) were below 30 mg/kg/day and at least 240 mg/kg/day, respectively. The LEL with rat [4] (setting [20]) stood at 11 mg/kg/day; in the data set with mouse [5], 400 mg/kg/day; in the data set with mouse [6] (setting [21]) it was 75 mg/kg/day; in the data set with mouse [7] (setting [22]) it was 50 mg/kg/day; in the data set with rat [8], 6 mg/kg/day; in the data set with rat [9], 192 mg/kg/day. For the same molecule, the figures for the LEL in the data set with rat [10] and with rat [11] (systemic / in life observation / clinical signs / reduced activity) were 30 mg/kg/day and 120 mg/kg/day, respectively. The NEL in the data set with rat [4] (setting [20]) is below 11 mg/kg/day; in the data set with mouse [5], 200 mg/kg/day; with mouse [6] (setting [21]) it was below 75 mg/kg/day; in the data set on mouse [7] (setting [22]) it was below 50 mg/kg/day; in the data set with rat [8], below 6 mg/kg/day; in the data set with rat [9], 96 mg/kg/day. The results for the NEL with rat [10] and in the data set with rat [11] (setting [23]) were below 30 mg/kg/day and 60 mg/kg/day, respectively.

In the case of `O=c1[n-]c(=O)[nH]c(=O)[nH]1.[Na+]` [Sodium cyanurate], the LEL in the data set on rat [12] was 371 mg/kg/day; with mouse [13] (setting [24]), 252 mg/kg/day; in the data set on rabbit (setting [26]) it was 500 mg/kg/day; with rabbit (setting [27]) it was 200 mg/kg/day; in the data set on rat [14] (setting [28]), 132 mg/kg/day; with mouse [15] (systemic / in life observation / body weight / body weight gain) it was 100 mg/kg/day. For the same molecule, the lowest-observed-adverse-effect level (LOAEL) in the data set with rat [12] is 371 mg/kg/day; in the data set on mouse [13] (setting [25]), 1990 mg/kg/day; with rabbit (setting [26]), 500 mg/kg/day; in the data set with rabbit (setting [27]), 200 mg/kg/day; with rat [14] (setting [29]), above 672 mg/kg/day; with mouse [15] (setting [30]), above 1520 mg/kg/day. Besides, the NEL with rat [12] is 154 mg/kg/day; with mouse [13] (setting [24]) it was below 252 mg/kg/day; in the data set with rabbit (setting [26]), 200 mg/kg/day; in the data set on rabbit (setting [27]), 50 mg/kg/day; in the data set on rat [14] (setting [28]), below 132 mg/kg/day; in the data set on mouse [15] (systemic / in life observation / body weight / body weight gain + systemic / in life observation / clinical signs / distended abdomens + …), 25.9 mg/kg/day. The NOAEL in the data set on rat [12] was 154 mg/kg/day; in the data set on mouse [13] (setting [25]) it was 522 mg/kg/day; with rabbit (setting [26]), 200 mg/kg/day; in the data set on rabbit (setting [27]) it was 50 mg/kg/day; in the data set with rat [14] (setting [29]), at least 672 mg/kg/day; with mouse [15] (setting [30]) it was at least 1520 mg/kg/day.

In general, LOAEL refers to the lowest tested level that showed an adverse finding. The term NOAEL denotes the highest tested level that showed no adverse finding.
